Laboratory results from paper PMC8274846, “Biogenic nanoporous silicon carrier improves the efficacy of buparvaquone against resistant visceral leishmaniasis” (PLoS Neglected Tropical Diseases, 2021).

Columns and labels:
L.donovani = system: L.donovani; set-up: method as in PMID 25936561; conditions: L.donovani infection; cited from earlier work
liver parasite burden = system: liver parasite burden; set-up: method as in PMID 14695832, PMID 17715126; conditions: BALB/c mice; cited from earlier work
[1] = system: intracellular L.donovani amastigotes, wild-type AG83, in macrophages; assay: Antileishmanial activity against intracellular amastigotes, wild-type AG83; type: cell-based
Procedure: (§1) The intracellular antileishmanial activity was evaluated based on the reduction in the amastigote numbers in the infected macrophages after the treatment. The method was adapted from our previous work. Briefly, 4x10^6 amastigotes in 500 μL of RPMI-1640 suspension were added to each well containing macrophages with the macrophage: parasite ratio of 1:10. The plates were incubated for 4 h at 37°C in 5% CO2. After the parasite internalization period, cells were washed at least twice with fresh media to remove non-phagocytosed parasites. Then, the drug specimen suspended in 1 mL RPMI-1640 was added, and the samples were incubated for 72 h at 37°C in 5% CO2. The medium was aspirated, the coverslips were removed, and then fixed with methanol and air-dried. After staining with Giemsa, 100 cells on the glass discs were counted. Three independent experiments in quadruplicate for each concentration were performed.
(§2) Microscopic examinations were performed in duplicates with various concentrations of pure drugs or buparvaquone-loaded nanoparticles and also for control wells. The amastigotes cells were counted for all cases using a hemocytometer. The mean of the control wells was considered as 100% survival. The counts in the treated wells at various concentrations were converted into percentages. Giemsa-stained slides of the macrophages infected with amastigotes were observed under a light microscope. Then the numbers of amastigotes and infected macrophages per 100 cells were counted for each slide. The percentage (%) of inhibition was calculated by using the equation %ofinhibition=C−T/C×100, (2) where C is the number of amastigotes/infected macrophages per 100 cells in the control well and T is the number of amastigotes/infected macrophages per 100 cells in the drug-treated well.
(§3) Origin version 6.1 software was used to calculate IC50 and CC50 values by plotting a graph of the percentage of inhibition at various concentrations of all the observations.

[2] = system: axenic L.donovani amastigotes, AG83-R, SSG (SSG resistant strain generated from AG83); assay: microbe, parasite or virus in culture; type: cell-based
Procedure: (§4) L. donovani AG83 (MHOM/IN/83/AG83) and GE1 (MHOM/IN/80/GE1F8R) promastigotes were routinely grown in medium 199 supplemented with 10% heat-inactivated fetal bovine serum, 2 mM L-glutamine, 20 mM HEPES, 100 U/mL penicillin, and 100 μg/mL streptomycin at 25°C. L. donovani amastigote forms were grown and maintained as described previously. Axenic amastigote forms were derived from promastigote forms by culturing them in MMA/20 (medium for axenic amastigote) at pH 5.5 [22]. Axenically grown amastigotes were maintained by sub-culture of 10^5 parasites/ml repeated every fifth day under experimental conditions of 37°C temperature and 5% CO2 environment.
(§5) SSG and PMM resistant L. donovani amastigotes were generated by using the methods described previously. […] The cultures were stabilized for three subcultures. Then, the drug concentration was increased until the cell population decreased approximately to 20% for each batch. Finally, when 90% cell population of the initial count was reduced, the phenotype generated was plated on medium 199 agar plates containing the same drug concentration, and a single colony was picked for culture in medium 199 liquid media at the same drug concentration. The cultured promastigotes are converted into amastigotes as described above. Drug pressure was withdrawn, and stability was checked at one, two, and four months. SSG and PMM resistant phenotype clones were labeled as AG83-R,SSG and AG83-R, PMM, respectively.
(§6) The antileishmanial activity of the drug specimens (BPQ+NP, BPQ, SSG, AmB, PMM, and MF) against the axenic amastigotes were evaluated based on the IC50 value, which is the concentration of the specimen required to kill 50% of the parasites. The parasites were first seeded into 96-well plates at a density of 1x10^5 amastigotes/well in 200 μL medium. Then, 10 μL of the drug candidates at various concentrations were added and the final volume was adjusted to […] medium. The number of amastigotes in the wells treated with each specimen were compared to those in the untreated control wells.
as §2, §3

[3] = system: axenic L.donovani amastigotes, AG83-R, PMM (PMM resistant strain generated from AG83); assay: microbe, parasite or virus in culture; type: cell-based
Procedure: as §4, §5, §6, §2, §3

[4] = system: intracellular L.donovani amastigotes, GE1, in macrophages; assay: Antileishmanial activity against intracellular amastigotes, GE1; type: cell-based
Procedure: as §1, §2, §3

[5] = system: intracellular L.donovani amastigotes, AG83-R, PMM, in macrophages; assay: microbe, parasite or virus in culture; type: cell-based
Procedure: as §5, §1, §2, §3

[6] = system: intracellular L.donovani amastigotes, AG83-R, SSG, in macrophages; assay: microbe, parasite or virus in culture; type: cell-based
Procedure: as §5, §1, §2, §3

[7] = Cytotoxicity studies (CC50) on peritoneal macrophages; type: cell-based, BALB/c mice; conditions: BALB/c, mouse, resident peritoneal macrophages, 48 h exposure, mean ± σ, n = 3
Procedure: Resident peritoneal macrophages were isolated from BALB/c mice. For the isolation, 1.5 mL of sterile thioglycolate medium was injected into the peritoneal cavity to induce non-infectious inflammation. Animals were sacrificed after 5 days, and peritoneal exudates were harvested by intraperitoneal lavage. Cold RPMI (6 mL) was injected into the peritoneal cavity. After 10 min, the injected fluid was withdrawn by the same syringe. From each animal, approximately 3-4 mL of medium was recovered. After centrifugation at 200 g for 15 min, macrophages were collected. […] The cytotoxicity of the drug specimen was evaluated by the CC50 value, which is the concentration required to kill 50% of the host cell population. Macrophages were first isolated from peritoneal lavage as described above. The cells were seeded into 96-well plates at 1x10^6 cells/mL in 200 μL of RPMI-1640 supplemented with 10% FCS, 20 mM L-glutamine, 16 mM NaHCO3, penicillin (50 U/mL) and streptomycin (50 μg/ mL) at 37°C in 5% CO2 for 4 h for adherence. To remove the non-adherent cells, each plate was washed two times with phosphate buffer saline (pH 7.2). […] Microscopic examinations were performed in duplicates with various concentrations of pure drugs or buparvaquone-loaded nanoparticles and also for control wells. The amastigotes cells were counted for all cases using a hemocytometer. The mean of the control wells was considered as 100% survival. The counts in the treated wells at various concentrations were converted into percentages. Giemsa-stained slides of the macrophages infected with amastigotes were observed under a light microscope. Then the numbers of amastigotes and infected macrophages per 100 cells were counted for each slide. The percentage (%) of inhibition was calculated by using the equation %[…]×100, (2) where C is the number of amastigotes/infected macrophages per 100 cells in the control well and T is the number of amastigotes/infected macrophages per 100 cells in the drug-treated well.

[8] = system: axenic L.donovani amastigotes, wild-type AG83; assay: Antileishmanial activity against axenic amastigotes, wild-type AG83; type: cell-based; conditions: Leishmania donovani; axenic amastigotes; mean ± σ, n = 4
Procedure: as §4, §6, §2, §3

[9] = system: axenic L.donovani amastigotes, GE1 (isolated strain resistant to SSG); assay: Antileishmanial activity against axenic amastigotes, GE1; type: cell-based
Procedure: as §4, §6, §2, §3

[10] = IC50 against drug resistant strain / IC50 against wild-type strain (AG83), axenic

C[C@@H]1CC[C@H]2[C@@H](C)C(=O)O[C@@H]3O[C@@]4(C)CC[C@@H]1[C@]32OO4 [artemisinin]
Reduction of parasite burdens (liver and spleen) (L.donovani): ~ 50%

CC(C)(C)C1CCC(CC2=C(OP(=O)(O)O)C(=O)c3ccccc3C2=O)CC1 (stereo not drawn) [buparvaquone-3-phosphate]
Reduction in the liver parasite burden (liver parasite burden): 34%

C[C@@H]1[C@H](O)[C@@H](C)/C=C/C=C/C=C/C=C/C=C/C=C/C=C/[C@H](O[C@@H]2O[C@H](C)[C@@H](O)[C@H](N)[C@@H]2O)C[C@@H]2O[C@](O)(C[C@@H](O)C[C@@H](O)[C@H](O)CC[C@@H](O)C[C@@H](O)CC(=O)O[C@H]1C)C[C@H](O)[C@H]2C(=O)O [AmB, amphotericin B]
Selectivity index (SI), AG83 ([1]; CC50/IC50, intracellular): 80 ± 10
IC50 ([1]; Leishmania donovani, Macrophage, intracellular amastigotes, 72 h, mean ± σ, n = 4, read-out: Cellular IC50, Wild-type AG83): 200 ± 100 nM
Resistance index (RI), AG83-R, SSG [2, 10]: 1.1 ± 0.1
IC50 ([2]; Leishmania donovani, read-out: Axenic IC50, AG83-R, SSG): 300 ± 100 nM
Resistance index (RI), AG83-R, PMM [3, 10]: 1.2 ± 0.2
IC50 ([3]; Leishmania donovani, read-out: Axenic IC50, AG83-R, PMM): 300 ± 100 nM
Selectivity index (SI), GE1 ([4]; CC50/IC50, intracellular): 90 ± 10
IC50 ([4]; Leishmania donovani, Macrophage, intracellular amastigotes, 72 h, mean ± σ, n = 4, read-out: Cellular IC50, GE1): 200 ± 100 nM
Selectivity index (SI), AG83-R, PMM ([5]; CC50/IC50, intracellular): 70 ± 10
IC50 ([5]; Leishmania donovani, Macrophage, 72 h, read-out: Cellular IC50, AG83-R, PMM): 300 ± 100 nM
Selectivity index (SI), AG83-R, SSG ([6]; CC50/IC50, intracellular): 70 ± 10
IC50 ([6]; Leishmania donovani, Macrophage, 72 h, read-out: Cellular IC50, AG83-R, SSG): 200 ± 100 nM
CC50 at 48 h [7]: 15000 ± 2000 nM
IC50 [8]: 200 ± 100 nM
Resistance index (RI), GE1 [9, 10]: 1.1 ± 0.2
IC50 ([9]; Leishmania donovani, axenic amastigotes, mean ± σ, n = 4): 300 ± 100 nM
